Assay results: ChEMBL document CHEMBL1201862, “PubChem BioAssay data set” (2004)
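A five-concentration, 48-hour dose response in 96-well plates underlies each endpoint, interpolated linearly between surrounding concentrations. Here, GI50 denotes the concentration required for 50% inhibition of growth.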 The source made the active and inactive calls. No stated cut-off is given here; in the data, active = GI50 up to about 1.1 µM and inactive = higher.

Legend:
Assay in all cases: growth of human tumour cells (NCI), 48 h
786-0 = test system: 786-0
A498 = test system: A498
A549 = test system: A549
ACHN = test system: ACHN
BT-549 = test system: BT-549
CAKI-1 = test system: CAKI-1
CCRF-CEM = test system: CCRF-CEM
DU-145 = test system: DU-145
EKVX = test system: EKVX
HCC 2998 = test system: HCC 2998
HCT-116 = test system: HCT-116
HCT-15 = test system: HCT-15
HOP-62 = test system: HOP-62
HOP-92 = test system: HOP-92
HT-29 = test system: HT-29
Hs-578T = test system: Hs-578T
IGROV-1 = test system: IGROV-1
K562 = test system: K562
KM12 = test system: KM12
LOX IMVI = test system: LOX IMVI
M14 = test system: M14
MDA-MB-231 = test system: MDA-MB-231
MDA-MB-435 = test system: MDA-MB-435
MDA-N = test system: MDA-N
MOLT-4 = test system: MOLT-4
Malme-3M = test system: Malme-3M
NCI-H226 = test system: NCI-H226
NCI-H23 = test system: NCI-H23
NCI-H460 = test system: NCI-H460
NCI-H522 = test system: NCI-H522
NCI/ADR-RES = test system: NCI/ADR-RES
OVCAR-3 = test system: OVCAR-3
OVCAR-4 = test system: OVCAR-4
OVCAR-5 = test system: OVCAR-5
OVCAR-8 = test system: OVCAR-8
PC-3 = test system: PC-3
RXF 393 = test system: RXF 393
SF-268 = test system: SF-268
SF-295 = test system: SF-295
SK-MEL-28 = test system: SK-MEL-28
SK-MEL-2 = test system: SK-MEL-2
SK-MEL-5 = test system: SK-MEL-5
SN12C = test system: SN12C
SNB-19 = test system: SNB-19
SNB-75 = test system: SNB-75
SR = test system: SR
SW-620 = test system: SW-620
T47D = test system: T47D
TK-10 = test system: TK-10
U-251 = test system: U-251
UACC-257 = test system: UACC-257
UACC-62 = test system: UACC-62
UO-31 = test system: UO-31
COLO 205 = test system: COLO 205
MCF7 = test system: MCF7
RPMI-8226 = test system: RPMI-8226
SF-539 = test system: SF-539
SK-OV-3 = test system: SK-OV-3

Cc1ccc(S(=O)(=O)OC2C(C3COC(C)(C)O3)OC3OC(C)(C)OC32)cc1 (stereo not drawn) was tested, and the GI50 (786-0) was > 100 µM (inactive), the GI50 (A498) was > 100 µM (inactive) and the GI50 (A549) was > 100 µM (inactive). For the same compound, the GI50 (ACHN) was > 100 µM (inactive), the GI50 (BT-549) was > 100 µM (inactive) and the GI50 (CAKI-1) was > 100 µM (inactive). For the same compound, the GI50 (CCRF-CEM) was > 100 µM (inactive), the GI50 (DU-145) was > 100 µM (inactive) and the GI50 (EKVX) was > 100 µM (inactive). For the same compound, the GI50 (HCC 2998) was > 100 µM (inactive), the GI50 (HCT-116) was > 100 µM (inactive) and the GI50 (HCT-15) was over 100 µM. For the same compound, the GI50 (HOP-62) was > 100 µM (inactive), the GI50 (HOP-92) was > 100 µM (inactive) and the GI50 (HT-29) was > 100 µM (inactive). For the same compound, the GI50 (Hs-578T) was > 100 µM (inactive), the GI50 (IGROV-1) was > 100 µM (inactive) and the GI50 (K562) was > 100 µM (inactive). For the same compound, the GI50 (KM12) was > 100 µM (inactive), the GI50 (LOX IMVI) was > 100 µM (inactive) and the GI50 (M14) was > 100 µM (inactive). For the same compound, the GI50 (MDA-MB-231) was > 100 µM (inactive), the GI50 (MDA-MB-435) was > 100 µM (inactive) and the GI50 (MDA-N) was > 100 µM (inactive). The GI50 (MOLT-4) was > 100 µM (inactive), the GI50 (Malme-3M) was > 100 µM (inactive) and the GI50 (NCI-H226) was > 100 µM (inactive). The GI50 (NCI-H23) was > 100 µM (inactive), the GI50 (NCI-H460) was > 100 µM (inactive) and the GI50 (NCI-H522) was > 100 µM (inactive). For the same compound, the GI50 (NCI/ADR-RES) was > 100 µM (inactive), the GI50 (OVCAR-3) was > 100 µM (inactive) and the GI50 (OVCAR-4) was > 100 µM (inactive). For the same compound, the GI50 (OVCAR-5) was > 100 µM (inactive), the GI50 (OVCAR-8) was > 100 µM (inactive) and the GI50 (PC-3) was > 100 µM (inactive). For the same compound, the GI50 (RXF 393) was > 100 µM (inactive), the GI50 (SF-268) was > 100 µM (inactive) and the GI50 (SF-295) was > 100 µM (inactive). The GI50 (SK-MEL-28) was > 100 µM (inactive), the GI50 (SK-MEL-2) was > 100 µM (inactive) and the GI50 (SK-MEL-5) was > 100 µM (inactive). The GI50 (SN12C) was > 100 µM (inactive), the GI50 (SNB-19) was > 100 µM (inactive) and the GI50 (SNB-75) was > 100 µM (inactive). The GI50 (SR) was > 100 µM (inactive), the GI50 (SW-620) was > 100 µM (inactive) and the GI50 (T47D) was > 100 µM (inactive). The GI50 (TK-10) was > 100 µM (inactive), the GI50 (U-251) was > 100 µM (inactive) and the GI50 (UACC-257) was > 100 µM (inactive). The GI50 (UACC-62) was > 100 µM (inactive) and the GI50 (UO-31) was > 100 µM (inactive).
With COc1ccc(/C=N/n2c(-c3ccccc3)n[nH]c2=O)cc1 the GI50 (786-0) was > 100 µM (inactive), the GI50 (A498) was 25.3 µM (inactive) and the GI50 (A549) was 95.1 µM (inactive). The GI50 (ACHN) was > 100 µM (inactive), the GI50 (BT-549) was > 100 µM (inactive) and the GI50 (CAKI-1) was > 100 µM (inactive). For the same compound, the GI50 (CCRF-CEM) was > 100 µM (inactive), the GI50 (COLO 205) was > 100 µM (inactive) and the GI50 (DU-145) was > 100 µM (inactive). The GI50 (EKVX) was > 100 µM (inactive), the GI50 (HCC 2998) was > 100 µM (inactive) and the GI50 (HCT-116) was 74.5 µM (inactive). For the same compound, the GI50 (HCT-15) was over 100 µM, the GI50 (HOP-62) was > 100 µM (inactive) and the GI50 (HT-29) was > 100 µM (inactive). The GI50 (Hs-578T) was 50.1 µM (inactive), the GI50 (K562) was > 100 µM (inactive) and the GI50 (KM12) was 48.8 µM (inactive). For the same compound, the GI50 (M14) was > 100 µM (inactive), the GI50 (MCF7) was > 100 µM (inactive) and the GI50 (MDA-MB-231) was > 100 µM (inactive). The GI50 (MDA-MB-435) was > 100 µM (inactive), the GI50 (MDA-N) was > 100 µM (inactive) and the GI50 (MOLT-4) was 46.9 µM (inactive). For the same compound, the GI50 (Malme-3M) was > 100 µM (inactive), the GI50 (NCI-H226) was > 100 µM (inactive) and the GI50 (NCI-H23) was > 100 µM (inactive). For the same compound, the GI50 (NCI-H460) was > 100 µM (inactive), the GI50 (NCI/ADR-RES) was > 100 µM (inactive) and the GI50 (OVCAR-3) was > 100 µM (inactive). The GI50 (OVCAR-4) was 53.8 µM (inactive), the GI50 (OVCAR-5) was > 100 µM (inactive) and the GI50 (OVCAR-8) was > 100 µM (inactive). The GI50 (PC-3) was > 100 µM (inactive), the GI50 (RPMI-8226) was > 100 µM (inactive) and the GI50 (SF-268) was > 100 µM (inactive). For the same compound, the GI50 (SF-295) was > 100 µM (inactive), the GI50 (SF-539) was > 100 µM (inactive) and the GI50 (SK-MEL-28) was > 100 µM (inactive). The GI50 (SK-MEL-2) was > 100 µM (inactive), the GI50 (SK-OV-3) was > 100 µM (inactive) and the GI50 (SN12C) was > 100 µM (inactive). The GI50 (SNB-19) was > 100 µM (inactive), the GI50 (SNB-75) was > 100 µM (inactive) and the GI50 (SW-620) was > 100 µM (inactive). For the same compound, the GI50 (T47D) was > 100 µM (inactive), the GI50 (U-251) was > 100 µM (inactive) and the GI50 (UACC-257) was > 100 µM (inactive). For the same compound, the GI50 (UACC-62) was > 100 µM (inactive) and the GI50 (UO-31) was 95.3 µM (inactive).
CN1CCN(c2ncc3c(n2)sc2c(=O)n(-c4ccccc4)cnc23)CC1 was tested, and the GI50 (786-0) was > 100 µM (inactive), the GI50 (A498) was > 100 µM (inactive) and the GI50 (A549) was > 100 µM (inactive). For the same compound, the GI50 (ACHN) was > 100 µM (inactive), the GI50 (BT-549) was > 100 µM (inactive) and the GI50 (CAKI-1) was > 100 µM (inactive). For the same compound, the GI50 (CCRF-CEM) was > 100 µM (inactive), the GI50 (COLO 205) was > 100 µM (inactive) and the GI50 (DU-145) was > 100 µM (inactive). The GI50 (HCC 2998) was > 100 µM (inactive), the GI50 (HCT-116) was > 100 µM (inactive) and the GI50 (HCT-15) was over 100 µM. For the same compound, the GI50 (HOP-62) was > 100 µM (inactive), the GI50 (HOP-92) was > 100 µM (inactive) and the GI50 (HT-29) was > 100 µM (inactive). The GI50 (Hs-578T) was > 100 µM (inactive), the GI50 (IGROV-1) was > 100 µM (inactive) and the GI50 (K562) was > 100 µM (inactive). The GI50 (KM12) was > 100 µM (inactive), the GI50 (LOX IMVI) was > 100 µM (inactive) and the GI50 (M14) was > 100 µM (inactive). For the same compound, the GI50 (MDA-MB-231) was > 100 µM (inactive), the GI50 (MDA-MB-435) was > 100 µM (inactive) and the GI50 (MDA-N) was > 100 µM (inactive). The GI50 (MOLT-4) was > 100 µM (inactive), the GI50 (Malme-3M) was > 100 µM (inactive) and the GI50 (NCI-H226) was > 100 µM (inactive). For the same compound, the GI50 (NCI-H23) was > 100 µM (inactive), the GI50 (NCI-H460) was > 100 µM (inactive) and the GI50 (NCI-H522) was > 100 µM (inactive). For the same compound, the GI50 (NCI/ADR-RES) was > 100 µM (inactive), the GI50 (OVCAR-3) was > 100 µM (inactive) and the GI50 (OVCAR-4) was > 100 µM (inactive). The GI50 (OVCAR-5) was > 100 µM (inactive), the GI50 (OVCAR-8) was > 100 µM (inactive) and the GI50 (PC-3) was > 100 µM (inactive). The GI50 (RPMI-8226) was > 100 µM (inactive), the GI50 (RXF 393) was > 100 µM (inactive) and the GI50 (SF-268) was > 100 µM (inactive). The GI50 (SF-295) was > 100 µM (inactive), the GI50 (SK-MEL-28) was > 100 µM (inactive) and the GI50 (SK-MEL-2) was > 100 µM (inactive). The GI50 (SK-MEL-5) was > 100 µM (inactive), the GI50 (SK-OV-3) was > 100 µM (inactive) and the GI50 (SN12C) was > 100 µM (inactive). For the same compound, the GI50 (SNB-19) was > 100 µM (inactive), the GI50 (SNB-75) was > 100 µM (inactive) and the GI50 (SR) was > 100 µM (inactive). For the same compound, the GI50 (SW-620) was > 100 µM (inactive), the GI50 (T47D) was > 100 µM (inactive) and the GI50 (TK-10) was > 100 µM (inactive). For the same compound, the GI50 (U-251) was > 100 µM (inactive), the GI50 (UACC-257) was > 100 µM (inactive) and the GI50 (UACC-62) was > 100 µM (inactive). For the same compound, the GI50 (UO-31) was > 100 µM (inactive).
